Reference: patent US5814634A, “Alkylenediamine derivative anti-ulcer drug and antibacterial drug” (Shiseido Co. Ltd., priority 1996, dated 1998)

Experiments:
[1] = in vitro; conditions: rabbit, gastric mucosal cells
[2] = test system: stress ulcer; test: WIS: Restraint and Water Immersion Stress-Induced Ulcer Inhibition Test; type: in vivo, rat (male Crj:SD or Slc:SD); conditions: for WIS: ulcer formation inhibitory rate: 100 mg/kg oral, rats, water immersion stress 7 hours
Procedure: WIS: Restraint and Water Immersion Stress-Induced Ulcer Inhibition Test
The degree of inhibition of the stress ulcer formation is tested.
Male Crj:SD or Slc:SD rats (6 to 7-week-old) were fasted overnight, but allowed free access to water. Each group has 5 to 8 of these rats. The sample compound was dissolved or suspended in an aqueous solution of 0.3% sodium carboxymethylcellulose or 0.05% Tween 80 and then was orally administered (100 mg/10 ml/kg). To a control group, the vehicle was administered. 10 minutes later, the rats were placed in a stress cage and immersed to the level of xipfoid process in a water bath (21° C.) for 7 hours. At the end of the stress, the rats were sacrificed by inhalation of ether or carbon dioxide. Then, the stomach of each was removed, inflated by injecting 10 ml of 5% formalin neutral buffer solution, and immersed in 1% formalin neutral buffer solution for 30 minutes or more to be fixed. The stomach was incised along the greater curvature and then the length of each erosion in the glandular portion was determined under dissecting microscope. The sum of the length of erosions per stomach was defined as ulcer index (UI).
The effect obtained when 100 mg/kg of the sample compound had been administered was expressed as ulcer formation inhibitory rate (%) as follows: [formula] VOL, TAO: Acid Secretion Inhibition Test In Vivo i) Meaning

[3] = test system: Male Slc:ICR mice; design: species or system mouse (male Slc:ICR); conditions: mouse, in vivo
Procedure: AT: Single Dose Toxicity Pretest
Male Slc:ICR mice (5-week-old) were used. Each group has 3 to 5 mice and each mouse was fasted, but allowed free access to water, for 4 to 5 hours from 9 a.m. in the test day. Then, 2,000 mg/10 ml/kg of the sample compound dissolved or suspended in an aqueous solution of 0.5% sodium carboxymethyl cellulose was orally administered thereto. To a control, only the vehicle was administered. […] The body weight was measured before and after the fasting as well as at the same time everyday. The dead animals were immediately subjected to autopsy and their organs were observed microscopically. Also, the living animals were sacrificed with ether or carbon dioxide one week after the administration and then their organs were observed microscopically.
The toxicity at the single dose of 2,000 mg/kg of the sample compound was expressed as being classified into 5 levels.
5: Mortality rate is 0%; no toxicity is found at all both in behavior and organs.
4: Mortality rate is 0%; while no toxicity is found in organs, slight toxicity is observed in behavior and body weight increase.
3: While there is a dead animal (though not all the animals are dead), no toxicity is found in organs.
2: Regardless of whether there is a dead animal or not, toxicity is found in organs.
1: All the animals are dead.

[4] = test system: gastric mucosa; test: PD: Gastric Mucosal Integrity Test (gastric mucosal potential difference); type: in vivo, rat (male Crj:SD); design: key: 5: Same as the control with no recognizable damage at all.; 4: Though a slight PD-decreasing tendency suggesting a slight possibility of mucosal damage is found, there is no problem.; 3: Though a weak decrease in PD and a possibility of a weak mucosal damage is recognized, there is no substantial problem.; 2: Medium degree of decrease in PD is found and a mucosal damage is recognized.; 1: Heavy degree of decrease in PD is found and a remarkable mucosal damage is recognized; conditions: 100 mg/kg into chamber, rats, 60 minutes
Procedure: PD: Gastric Mucosal Integrity Test
In this case, since the sample compound has a necrotizing effect, it is inappropriate as an anti-ulcer medicament.
Therefore, the gastric mucosal potential difference (PD), which reflects the integrity of the gastric mucosa, is measured so as to confirm that the sample compound has no damaging effect on gastric mucosa, which is toxicity at gastric mucosal level.
Male Crj:SD rats (7 to 8-week-old) were fasted overnight, but allowed free access to water, and then, under urethane anesthesia (1.25 g/kg, i.p.), fixed to a cork board on its back. The abdomen of each rat was incised, and a small incision was made in the forestomach. Then, the inside of the stomach was washed with physiological saline heated at 37° C. From the forestomach, along the greater curvature thereof, the stomach was incised without damaging blood vessels. After the height of the cork board was adjusted on a jack, the stomach was mounted on ex vivo chamber. The area of the gastric mucosa exposed to the inside of this chamber was 2.5 cm^2. The inside of the chamber was perfused with physiological saline warmed at 37° C. by micro tube pump. By using an agar bridge containing 3M KCl, the potential difference between the chamber and the abdominal cavity was measured by a PD meter. Here, the rectal temperature was measured to control the body temperature during the experiment. After the PD was sufficiently stabilized, the perfusate was stopped and then 100 mg/10 ml/kg of the sample compound dissolved or suspended in an aqueous solution of 0.5% sodium carboxymethyl cellulose or 0.05% Tween 80 was administered into the chamber, while PD was recorded for 60 minutes. To a control, the vehicle was administered.
The change in PD during 60 minutes after the administration of 100 mg/kg of the sample compound was collectively studied and, with reference to the positive control, classified into 5 levels as follows:
5: Same as the control with no recognizable damage at all.
3: Though a weak decrease in PD and a possibility of a weak mucosal damage is recognized, there is no substantial problem.
2: Medium degree of decrease in PD is found and a mucosal damage is recognized.
1: Heavy degree of decrease in PD is found and a remarkable mucosal damage is recognized.

[5] = test system: isolated gastric fundic gland; test: CAP: Acid Secretion Inhibition Test In Vitro ([14C]-aminopyrine uptake); type: cell-based, rabbit (male Japanese White); conditions: Oryctolagus cuniculus, 40 min; 10^-5 M compound, 10^-5 M histamine, rabbit isolated gastric fundic gland, 37° C., 40 minutes; read-out: CAP: acid secretion inhibitory rate
Procedure: With respect to the gastric juice volume (VOL) and the total acid output (TAO), the effects obtained when 100 mg/kg of the sample compound had been administered were expressed as their respective inhibitory rates (%) as follows: [formula] CAP: Acid Secretion Inhibition Test In Vitro i) Meaning
The acid secretion inhibitory activity in a cell level is studied. It can also be used for studying the mechanism of the effect.
ii-a) Preparation of isolated gastric fundus gland suspension
First, an isolated gastric fundic gland sample was prepared. […] Immediately thereafter, the stomach was removed and, after its pyloric and cardiac antrum were severed, incised along its greater curvature into two sheets. The gastric contents adhering to the mucosal surface was washed out with ice-cooled PBS (-) and then carefully washed therein. The gastric wall was spread on a cork board with its mucosal surface facing up and the feed and mucus thereon were completely removed with sterile gauze. The mucosa was separated therefrom by a spatula and then collected in ice-cooled PBS (-). After being washed twice with PBS (-), the mucosa was minced into 2-3 mm^3 pieces by scissors. These pieces were further washed twice with a nutrient solution. The nutrient solution comprises 132.4 mM of NaCl, 5.4 mM of KCl, 5 mM of Na2 HPO4.12H2 O, 1 mM of NaH2 PO4.2H2 O, 1.2 mM of MgSO4, 1 mM of CaCl2, 25 mM of HEPES, 2 mg/ml of glucose, and 1 mg/ml of BSA. Into 70 ml of the nutrient solution containing 1 mg/ml of collagenase, minced mucosal pieces were dispersed and intensely stirred in a conical flask with a stirrer at 37° C. for 40 to 60 minutes. During this period, 100% O2 was sprayed on the nutrient solution surface and the pH was appropriately measured such that it was immediately adjusted to pH 7.4, when the value was therebelow, with a base. The nutrient solution was added to the reaction solution so as to attain the total amount of about 200 ml. After being filtered through a mesh, the suspension was divisionally introduced into 50 ml centrifuge tubes and left for 15 minutes such that gastric fundic gland was deposited. The supernatant was repeatedly removed by an aspirator, dispersed in the nutrient solution, and then left such that the gastric fundic gland was washed three times. At this time, without using a pipette, the suspension was alternately introduced into two centrifuge tubes so as to effect dispersion. The number of cells was counted under microscope and adjusted to 1.6×10^6 cells/ml.
ii-b) [^14 C]-aminopyrine uptake test
Then, [^14 C]-aminopyrine uptake test was performed. After an Eppendorf tube was weighed, 10 μl (final concentration: 10^-5 M) of histamine dissolved in the above-mentioned nutrient solution, 10 μl (final concentration: 10^-5 M) of the test compound dissolved in DMSO, and 10 μl (final concentration: 0.05 μCi/ml) of [^14 C]-aminopyrine diluted with the nutrient solution were introduced therein and then 970 μl of the isolated gastric fundic gland suspension prepared above was added thereto. Subsequently, this mixture was shaken at 37° C. for 40 minutes at 125 cycles/minute. After being centrifuged for 30 minutes, 200 μl of its supernatant was collected into a mini-vial, while the rest was removed by an aspirator. The gland pellet was completely dried as the tube with its lid being opened was kept for one night in a drying oven at 80° C. and then the lid was closed and the weight was determined at room temperature. Then 100 μl of 1N KOH was added thereto and the tube with its lid being closed was treated at 60° C. for 1 to 2 hours so as to dissolve the pellet. Then, the contents thereof were transferred to a mini-vial. Into the mini-vial containing the supernatant or gland pellet, 4 ml of Atomlite™ was added and then the radioactivity was measured by a liquid scintillation counter. […]

For CC(C)=CCC/C(C)=C/COc1ccc(F)cc1C(=O)NCCN1CCCCC1 [Example 6], the cytotoxicity at 4 h, 100 µM [1] was 16%, the “WIS: ulcer formation inhibitory rate” value [2] was 80% and the “effect (anti-ulcer tests)” value ([2]; result in words, comparison of examples within compound group 1-1) was “the effect has been maintained”. For the same compound, the “AT: toxicity at single dose, 5 levels” value [3] was 3.

In the case of CC(C)=CCC/C(C)=C/COc1ccc(C(=O)NCCN2CCCCC2)cc1OC/C=C(\C)CCC=C(C)C [Example 11], the cytotoxicity at 4 h, 100 µM [1] is reported as 23%, the “PD: change in gastric mucosal potential difference, 5 levels” value [4] is reported as 5 and the “WIS: ulcer formation inhibitory rate” value [2] is reported as 91%. The “AT: toxicity at single dose, 5 levels” value [3] was 4.

In the case of CC(C)=CCC/C(C)=C/COc1ccc(OC/C=C(\C)CCC=C(C)C)c(C(=O)NCCN2CCCCC2)c1 [Example 13], the inhibition at 10 µM [5] is reported as 100%, the cytotoxicity at 4 h, 100 µM [1] is reported as -5% and the “WIS: ulcer formation inhibitory rate” value [2] is reported as 67%. The “AT: toxicity at single dose, 5 levels” value [3] was 5.

For CC(C)=CCC/C(C)=C/COc1cc(OC/C=C(\C)CCC=C(C)C)cc(C(=O)NCCN2CCCCC2)c1 [Example 14], the cytotoxicity at 4 h, 100 µM [1] was 26%, the “WIS: ulcer formation inhibitory rate” value [2] was 66% and the “AT: toxicity at single dose, 5 levels” value [3] was 3.

With CC(C)=CCOc1ccc(OCC=C(C)C)c(C(=O)NCCN2CCCCC2)c1 [Example 17] the inhibition at 10 µM [5] was 100%, the cytotoxicity at 4 h, 100 µM [1] was -16% and the “WIS: ulcer formation inhibitory rate” value [2] was 70%. The “AT: toxicity at single dose, 5 levels” value [3] was 3.

With CC(C)=CCOc1cc(C(=O)NCCN2CCCCC2)cc(OCC=C(C)C)c1OCC=C(C)C [Example 19] the “WIS: ulcer formation inhibitory rate” value [2] was 57% and the “AT: toxicity at single dose, 5 levels” value [3] was 4.

For COc1ccc(OC/C=C(\C)CCC=C(C)C)c(C(=O)NCCN2CCCCC2)c1 [Example 20], the cytotoxicity at 4 h, 100 µM [1] was 35%, the “WIS: ulcer formation inhibitory rate” value [2] was 71% and the “AT: toxicity at single dose, 5 levels” value [3] was 3.

With COc1ccc(C(=O)NCCN2CCCCC2)cc1OC/C=C(\C)CCC=C(C)C [Example 23] the cytotoxicity at 4 h, 100 µM [1] was 43%, the “WIS: ulcer formation inhibitory rate” value [2] was 56% and the “AT: toxicity at single dose, 5 levels” value [3] was 3.

With COc1cc(C(=O)NCCN2CCCCC2)cc(OC/C=C(\C)CCC=C(C)C)c1OC [Example 24] the cytotoxicity at 4 h, 100 µM [1] was 30%, the “WIS: ulcer formation inhibitory rate” value [2] was 72% and the anti-ulcer effect ([2]; result in words) was “more anti-ulcer effect”. For the same compound, the “AT: toxicity at single dose, 5 levels” value [3] was 5.

With COc1cc(C(=O)NCCN2CCCCC2)ccc1OC/C=C(\C)CCC=C(C)C [Example 25] the cytotoxicity at 4 h, 100 µM [1] was 48%, the “WIS: ulcer formation inhibitory rate” value [2] was 44% and the “AT: toxicity at single dose, 5 levels” value [3] was 3.

With COc1cc(C(=O)NCCN2CCCCC2)cc(OC)c1OCC=C(C)C [Example 27] the cytotoxicity at 4 h, 100 µM [1] was -11%, the “PD: change in gastric mucosal potential difference, 5 levels” value [4] was 5 and the “WIS: ulcer formation inhibitory rate” value [2] was 82%.

In the case of CC(C)=CCC/C(C)=C/COc1cccc(C(=O)NCCN2CCOCC2)c1 [Example 29], the inhibition at 10 µM [5] is reported as 99%, the cytotoxicity at 4 h, 100 µM [1] is reported as 16% and the “WIS: ulcer formation inhibitory rate” value [2] is reported as 63%. The “AT: toxicity at single dose, 5 levels” value [3] was 5.

With CC(C)=CCC/C(C)=C/CC/C(C)=C/COc1ccc(C(=O)NCCN2CCOCC2)cc1 [Example 32] the inhibition at 10 µM [5] was 99%, the cytotoxicity at 4 h, 100 µM [1] was 58% and the “WIS: ulcer formation inhibitory rate” value [2] was 55%. For the same compound, the “AT: toxicity at single dose, 5 levels” value [3] was 5.

With CC(C)=CCOc1cc(C(=O)NCCN2CCOCC2)cc(OCC=C(C)C)c1OCC=C(C)C [Example 39] the “WIS: ulcer formation inhibitory rate” value [2] was 76% and the “AT: toxicity at single dose, 5 levels” value [3] was 4.

In the case of COc1cc(C(=O)NCCN2CCOCC2)cc(OC)c1OC/C=C(\C)CCC=C(C)C [Example 42], the inhibition at 10 µM [5] is reported as 102%, the cytotoxicity at 4 h, 100 µM [1] is reported as 0% and the “WIS: ulcer formation inhibitory rate” value [2] is reported as 69%. The “AT: toxicity at single dose, 5 levels” value [3] was 4.

For COc1cc(C(=O)NCCN2CCOCC2)cc(OC)c1OC/C=C(/C)CCC=C(C)C [Example 43], the cytotoxicity at 4 h, 100 µM [1] was 10%, the “PD: change in gastric mucosal potential difference, 5 levels” value [4] was 5 and the “WIS: ulcer formation inhibitory rate” value [2] was 41%. The “AT: toxicity at single dose, 5 levels” value [3] was 4.

For COc1cc(C(=O)NCCN2CCOCC2)cc(OC/C=C(\C)CCC=C(C)C)c1OC [Example 44], the inhibition at 10 µM [5] was 100%, the cytotoxicity at 4 h, 100 µM [1] was 22% and the “WIS: ulcer formation inhibitory rate” value [2] was 61%. The “AT: toxicity at single dose, 5 levels” value [3] was 4.
